The values below come from patent US9365566B2 (Takeda Pharmaceutical Company Limited, priority 2012, dated 2016).

A word on the IC50: it is the concentration at which inhibition is half-maximal.

Each structure is given as a SMILES string.

T1 sequence (Q06187 382-659): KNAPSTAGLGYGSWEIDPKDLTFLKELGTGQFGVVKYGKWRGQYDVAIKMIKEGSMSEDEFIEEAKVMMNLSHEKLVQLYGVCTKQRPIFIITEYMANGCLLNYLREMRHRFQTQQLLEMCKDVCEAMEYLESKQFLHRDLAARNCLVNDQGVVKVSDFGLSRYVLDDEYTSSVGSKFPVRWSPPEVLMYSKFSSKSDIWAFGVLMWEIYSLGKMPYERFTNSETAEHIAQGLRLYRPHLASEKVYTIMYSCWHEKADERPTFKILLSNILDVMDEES

The assay has as its target T1, human BTK (Homo sapiens, UniProt Q06187).
T1 construct: GST (Glutathione-S-Transferase) (cleaved yes); made in house; host or cells: Spodoptera frugiperda Sf9 cells (baculovirus, Bac-to-Bac)
Description: BTK inhibition assay: BTK-mediated phosphorylation of FAM-labeled substrate 5-FAM-EEPLYWSFPAKKK-NH2 (Caliper LC-3000). Type of assay: biochemical. The settings on record: pIC50 = -log(IC50), IC50 molar; residues 382 to 659 of human BTK; incubated at room temperature for 60 minutes; larger values represent higher potency.
In turn, `Cc1ccc2c(N)c(C(N)=O)nnc2c1-c1ccc2[nH]ccc2c1` [Example 24, 4-amino-8-(1H-indol-5-yl)-7-methylcinnoline-3-carboxamide] showed an IC50 of 251 nM.
As to `Cc1cc2cnn(C)c2cc1-c1cccc2c(N)c(C(N)=O)nnc12` [Example 44, 4-amino-8-(1,5-dimethyl-1H-indazol-6-yl)cinnoline-3-carboxamide], the IC50 is 501 nM.
`Cc1cc(-c2cc3[nH]ncc3cc2C)c2nnc(C(N)=O)c(N)c2c1` [Example 64, 4-amino-6-methyl-8-(5-methyl-1H-indazol-6-yl)cinnoline-3-carboxamide]: the IC50 was 10 nM.
The figure for `COc1cc(C)c(-c2ccc3cn[nH]c3c2)c2nnc(C(N)=O)c(N)c12` [Example 42, 4-amino-8-(1H-indazol-6-yl)-5-methoxy-7-methylcinnoline-3-carboxamide] is 10 nM.
The figure for `NC(=O)c1nnc2c(N3CCc4cn[nH]c4C3)cccc2c1N` [Example 85, 4-amino-8-(4,5-dihydro-1H-pyrazolo[3,4-c]pyridin-6(7H)-yl)cinnoline-3-carboxamide] is 1000 nM; for `NC(=O)c1nnc2c(-c3ccc4nc(-c5cccc(C(F)(F)F)c5)[nH]c4c3)cccc2c1N` [Example 71, 4-amino-8-(2-(3-(trifluoromethyl)phenyl)-1H-benzo[d]imidazol-6-yl)cinnoline-3-carboxamide] it is 316 nM; for `NC(=O)c1nnc2c(-c3cc(F)c4c(c3)CC(=O)N4)cccc2c1N` [Example 6, 4-amino-8-(7-fluoro-2-oxoindolin-5-yl)cinnoline-3-carboxamide] it is 3160 nM.
To `Cn1cc2cc(-c3cccc4c(N)c(C(N)=O)nnc34)ccc2n1` [Example 11, 4-amino-8-(2-methyl-2H-indazol-5-yl)cinnoline-3-carboxamide] belongs 1000 nM; to `NC(=O)c1nnc2c(-c3ccc4c(c3)CN(c3ccccc3)C4=O)cccc2c1N` [Example 121, 4-amino-8-(1-oxo-2-phenylisoindolin-5-yl)cinnoline-3-carboxamide], 126 nM.
`NC(=O)c1nnc2c(-c3ccc4nc(-c5ccccc5Cl)[nH]c4c3)cccc2c1N` [Example 70, 4-amino-8-(2-(2-chlorophenyl)-1H-benzo[d]imidazol-6-yl)cinnoline-3-carboxamide] showed an IC50 of 79.4 nM.
The figure for `NC(=O)c1nnc2c(-c3ccc4nc(-c5ccsc5)[nH]c4c3)cccc2c1N` [Example 73, 4-amino-8-(2-(thiophen-3-yl)-1H-benzo[d]imidazol-6-yl)cinnoline-3-carboxamide] is 158 nM.
To `Cc1cc2[nH]ncc2cc1-c1cccc2c(N)c(C(N)=O)nnc12` [Example 49, 4-amino-8-(6-methyl-1H-indazol-5-yl)cinnoline-3-carboxamide] belongs 10 nM.
The figure for `NC(=O)c1nnc2c(-c3ccc4c(c3)CNC4=O)cccc2c1N` [Example 122] is 20 nM; for `Cc1ccc2c(N)c(C(N)=O)nnc2c1-c1ccc2cn[nH]c2c1F` [Example 104, 4-amino-8-(7-fluoro-1H-indazol-6-yl)-7-methylcinnoline-3-carboxamide] it is 31.6 nM; for `Cc1cc2c(cnn2C)cc1-c1cccc2c(N)c(C(N)=O)nnc12` [Example 55, 4-amino-8-(1,6-dimethyl-1H-indazol-5-yl)cinnoline-3-carboxamide] it is 39.8 nM.
`Cc1ccc2c(N)c(C(N)=O)nnc2c1-c1ccc2c(C3CC3)n[nH]c2c1` [Example 106, 4-amino-8-(3-cyclopropyl-1H-indazol-6-yl)-7-methylcinnoline-3-carboxamide] showed an IC50 of 501 nM.
To `Cc1ccc2c(N)c(C(N)=O)nnc2c1-c1ccc2c(C)n[nH]c2c1` [Example 99, 4-amino-7-methyl-8-(3-methyl-1H-indazol-6-yl)cinnoline-3-carboxamide] belongs 63.1 nM; to `CCc1ccc2c(N)c(C(N)=O)nnc2c1-c1ccc2c(c1)CNC2=O` [Example 129, 4-amino-7-ethyl-8-(1-oxoisoindolin-5-yl)cinnoline-3-carboxamide], 5.01 nM; to `Cc1ccc2c(N)c(C(N)=O)nnc2c1-c1ccc2cnn(C)c2c1` [Example 45, 4-amino-7-methyl-8-(1-methyl-1H-indazol-6-yl)cinnoline-3-carboxamide], 100 nM.
Compound `Cc1cc2cn[nH]c2cc1-c1cc(F)cc2c(N)c(C(N)=O)nnc12` [Example 136, 4-amino-6-fluoro-8-(5-methyl-1H-indazol-6-yl)cinnoline-3-carboxamide] had an IC50 of 10 nM.
`NC(=O)c1nnc2c(-c3cc4[nH]ncc4cc3Cl)cccc2c1N` [Example 105, 4-amino-8-(5-chloro-1H-indazol-6-yl)cinnoline-3-carboxamide]: the IC50 is 15.8 nM.
The figure for `CCc1ccc2c(N)c(C(N)=O)nnc2c1-c1ccc2[nH]ncc2c1` [Example 62, 4-amino-7-ethyl-8-(1H-indazol-5-yl)cinnoline-3-carboxamide] is 5.01 nM.
To `COc1ccc2c(N)c(C(N)=O)nnc2c1-c1ccc2[nH]ncc2c1` [Example 51, 4-amino-8-(1H-indazol-5-yl)-7-methoxycinnoline-3-carboxamide] belongs 12.6 nM.
The figure for `COc1ccc(-c2ccc3cn[nH]c3c2)c2nnc(C(N)=O)c(N)c12` [Example 38, 4-amino-8-(1H-indazol-6-yl)-5-methoxycinnoline-3-carboxamide] is 39.8 nM.
